According to ChEMBL document CHEMBL1833803, “Discovery of 1-amino-5H-pyrido[4,3-b]indol-4-carboxamide inhibitors of Janus kinase 2 (JAK2) for the treatment of myeloproliferative disorders” (J Med Chem, 2011):
pIC50: −log10 of the molar value.

How the values were obtained:
[1] = Selectivity ratio of IC50 for JAK3 to IC50 for JAK2
[2] = molecular target: T1, Tyrosine-protein kinase JAK2 (Homo sapiens, UniProt O60674); assay: Inhibition of JAK2 using biotin-EQEDEPEGDYFEWLE- NH2 as substrate
[3] = molecular target: T1, Tyrosine-protein kinase JAK2; assay: Inhibition of JAK2-mediated STAT5 phosphorylation in human HEL 92.1.7 irf1-bla cells; type: cell-based
CYP2C9 = CYP2C9 (Homo sapiens, UniProt P11712); assay: Inhibition of CYP2C9 at 10 uM; type: ADME
[4] = molecular target: T2, Tyrosine-protein kinase JAK3 (Homo sapiens, UniProt P52333); assay: Inhibition of JAK3 using biotin-EQEDEPEGDYFEWLE- NH2 as substrate
T2 sequence (P52333 whole entry): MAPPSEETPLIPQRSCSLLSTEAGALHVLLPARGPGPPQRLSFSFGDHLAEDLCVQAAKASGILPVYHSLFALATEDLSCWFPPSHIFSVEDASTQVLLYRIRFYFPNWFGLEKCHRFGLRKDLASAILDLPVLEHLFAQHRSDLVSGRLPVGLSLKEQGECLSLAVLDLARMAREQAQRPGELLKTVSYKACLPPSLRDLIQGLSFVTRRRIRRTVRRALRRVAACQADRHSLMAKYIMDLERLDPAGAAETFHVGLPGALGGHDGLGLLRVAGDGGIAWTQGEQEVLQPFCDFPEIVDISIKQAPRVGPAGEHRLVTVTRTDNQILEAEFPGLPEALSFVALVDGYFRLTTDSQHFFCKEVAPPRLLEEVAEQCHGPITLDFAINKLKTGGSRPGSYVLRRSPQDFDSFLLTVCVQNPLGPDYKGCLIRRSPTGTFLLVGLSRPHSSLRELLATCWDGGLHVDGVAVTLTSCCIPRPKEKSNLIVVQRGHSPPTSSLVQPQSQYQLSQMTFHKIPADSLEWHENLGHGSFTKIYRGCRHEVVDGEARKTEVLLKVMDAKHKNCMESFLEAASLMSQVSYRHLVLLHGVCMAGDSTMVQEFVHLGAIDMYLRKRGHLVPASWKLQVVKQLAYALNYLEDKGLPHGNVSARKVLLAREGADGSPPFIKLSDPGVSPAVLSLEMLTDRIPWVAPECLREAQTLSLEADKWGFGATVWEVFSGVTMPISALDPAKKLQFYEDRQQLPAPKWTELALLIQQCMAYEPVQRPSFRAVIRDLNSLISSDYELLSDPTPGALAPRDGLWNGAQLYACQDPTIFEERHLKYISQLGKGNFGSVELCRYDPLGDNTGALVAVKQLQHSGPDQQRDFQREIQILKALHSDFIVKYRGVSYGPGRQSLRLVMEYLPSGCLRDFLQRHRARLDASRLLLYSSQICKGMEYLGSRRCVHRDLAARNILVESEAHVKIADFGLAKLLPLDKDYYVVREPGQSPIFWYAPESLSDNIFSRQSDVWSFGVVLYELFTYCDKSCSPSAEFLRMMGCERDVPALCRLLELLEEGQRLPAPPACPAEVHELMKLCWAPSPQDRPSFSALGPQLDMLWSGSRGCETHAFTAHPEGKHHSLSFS

[5] = Bioavailability in rat at 1 mg/kg, iv; type: ADME, organism-based; conditions: in vivo
CYP3A4 = CYP3A4 (Homo sapiens, UniProt P08684); assay: Inhibition of CYP3A4 at 10 uM; type: ADME
[6] = Clearance in rat at 1 mg/kg, iv; type: ADME, organism-based; set-up: dose 1 mg/kg, route intravenous; conditions: in vivo
[7] = Half life in rat at 1 mg/kg, iv; type: ADME, organism-based; set-up: dose 1 mg/kg, route intravenous; conditions: in vivo
[8] = molecular target: Voltage-gated inwardly rectifying potassium channel KCNH2 (Homo sapiens, UniProt Q12809); assay: Inhibition of human hERG
[9] = Metabolic stability in rat hepatocytes assessed as half life; type: ADME, cell-based, Liver, Hepatocyte

Chain of CYP2C9 (P11712 whole entry): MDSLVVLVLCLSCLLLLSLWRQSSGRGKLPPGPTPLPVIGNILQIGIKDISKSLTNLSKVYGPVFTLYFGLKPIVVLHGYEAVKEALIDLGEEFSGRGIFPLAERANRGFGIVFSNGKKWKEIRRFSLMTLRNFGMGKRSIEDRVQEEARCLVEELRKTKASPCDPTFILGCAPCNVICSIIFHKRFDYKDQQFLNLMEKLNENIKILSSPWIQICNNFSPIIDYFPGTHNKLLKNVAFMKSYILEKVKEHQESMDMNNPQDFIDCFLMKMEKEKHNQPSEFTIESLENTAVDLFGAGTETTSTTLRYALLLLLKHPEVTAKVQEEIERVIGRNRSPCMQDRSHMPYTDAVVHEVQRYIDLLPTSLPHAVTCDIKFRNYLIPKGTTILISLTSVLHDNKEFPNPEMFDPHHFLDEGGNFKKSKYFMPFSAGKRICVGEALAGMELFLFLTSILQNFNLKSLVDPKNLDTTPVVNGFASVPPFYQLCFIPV
T1 sequence (O60674 whole entry): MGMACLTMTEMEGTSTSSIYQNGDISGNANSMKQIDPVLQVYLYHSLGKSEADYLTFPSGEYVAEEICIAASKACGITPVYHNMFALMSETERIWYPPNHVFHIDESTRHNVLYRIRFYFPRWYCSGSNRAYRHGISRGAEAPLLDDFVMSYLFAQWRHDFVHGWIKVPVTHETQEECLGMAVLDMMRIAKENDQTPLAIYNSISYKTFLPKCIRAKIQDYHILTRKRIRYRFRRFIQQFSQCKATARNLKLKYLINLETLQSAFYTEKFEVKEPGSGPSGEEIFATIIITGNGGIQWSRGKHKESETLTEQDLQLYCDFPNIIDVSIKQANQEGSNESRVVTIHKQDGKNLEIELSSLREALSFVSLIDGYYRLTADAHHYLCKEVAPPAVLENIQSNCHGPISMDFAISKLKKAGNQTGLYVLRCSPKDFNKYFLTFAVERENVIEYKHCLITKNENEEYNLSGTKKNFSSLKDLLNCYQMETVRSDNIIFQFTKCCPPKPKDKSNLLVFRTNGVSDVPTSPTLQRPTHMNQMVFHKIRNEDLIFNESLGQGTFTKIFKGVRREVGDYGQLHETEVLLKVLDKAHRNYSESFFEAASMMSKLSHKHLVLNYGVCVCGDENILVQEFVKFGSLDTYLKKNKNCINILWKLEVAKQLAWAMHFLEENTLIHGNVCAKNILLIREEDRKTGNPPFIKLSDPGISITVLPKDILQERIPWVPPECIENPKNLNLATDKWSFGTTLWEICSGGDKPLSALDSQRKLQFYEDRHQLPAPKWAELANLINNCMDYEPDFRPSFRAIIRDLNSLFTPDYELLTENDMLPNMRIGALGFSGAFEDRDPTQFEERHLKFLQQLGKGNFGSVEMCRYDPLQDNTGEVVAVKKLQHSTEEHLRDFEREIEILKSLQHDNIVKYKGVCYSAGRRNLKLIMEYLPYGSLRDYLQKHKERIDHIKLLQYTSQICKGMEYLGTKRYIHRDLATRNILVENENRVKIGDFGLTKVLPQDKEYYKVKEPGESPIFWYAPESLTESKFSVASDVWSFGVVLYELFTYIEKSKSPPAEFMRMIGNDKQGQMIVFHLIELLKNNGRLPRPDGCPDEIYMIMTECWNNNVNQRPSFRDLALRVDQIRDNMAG
Chain of CYP3A4 (P08684 whole entry): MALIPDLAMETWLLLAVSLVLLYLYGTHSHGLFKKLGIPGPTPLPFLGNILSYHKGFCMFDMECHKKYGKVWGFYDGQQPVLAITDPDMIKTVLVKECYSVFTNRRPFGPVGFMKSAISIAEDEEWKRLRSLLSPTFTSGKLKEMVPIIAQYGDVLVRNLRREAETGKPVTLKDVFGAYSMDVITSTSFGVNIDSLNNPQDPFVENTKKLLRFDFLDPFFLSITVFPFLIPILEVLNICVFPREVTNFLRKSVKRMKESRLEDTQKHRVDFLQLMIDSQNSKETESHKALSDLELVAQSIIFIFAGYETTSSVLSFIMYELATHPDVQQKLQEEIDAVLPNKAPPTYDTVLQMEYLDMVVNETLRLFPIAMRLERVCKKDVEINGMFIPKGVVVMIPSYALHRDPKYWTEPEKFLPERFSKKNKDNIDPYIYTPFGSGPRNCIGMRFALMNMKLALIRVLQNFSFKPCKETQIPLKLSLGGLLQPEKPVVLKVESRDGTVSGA
Chain of Voltage-gated inwardly rectifying potassium channel KCNH2 (Q12809 whole entry): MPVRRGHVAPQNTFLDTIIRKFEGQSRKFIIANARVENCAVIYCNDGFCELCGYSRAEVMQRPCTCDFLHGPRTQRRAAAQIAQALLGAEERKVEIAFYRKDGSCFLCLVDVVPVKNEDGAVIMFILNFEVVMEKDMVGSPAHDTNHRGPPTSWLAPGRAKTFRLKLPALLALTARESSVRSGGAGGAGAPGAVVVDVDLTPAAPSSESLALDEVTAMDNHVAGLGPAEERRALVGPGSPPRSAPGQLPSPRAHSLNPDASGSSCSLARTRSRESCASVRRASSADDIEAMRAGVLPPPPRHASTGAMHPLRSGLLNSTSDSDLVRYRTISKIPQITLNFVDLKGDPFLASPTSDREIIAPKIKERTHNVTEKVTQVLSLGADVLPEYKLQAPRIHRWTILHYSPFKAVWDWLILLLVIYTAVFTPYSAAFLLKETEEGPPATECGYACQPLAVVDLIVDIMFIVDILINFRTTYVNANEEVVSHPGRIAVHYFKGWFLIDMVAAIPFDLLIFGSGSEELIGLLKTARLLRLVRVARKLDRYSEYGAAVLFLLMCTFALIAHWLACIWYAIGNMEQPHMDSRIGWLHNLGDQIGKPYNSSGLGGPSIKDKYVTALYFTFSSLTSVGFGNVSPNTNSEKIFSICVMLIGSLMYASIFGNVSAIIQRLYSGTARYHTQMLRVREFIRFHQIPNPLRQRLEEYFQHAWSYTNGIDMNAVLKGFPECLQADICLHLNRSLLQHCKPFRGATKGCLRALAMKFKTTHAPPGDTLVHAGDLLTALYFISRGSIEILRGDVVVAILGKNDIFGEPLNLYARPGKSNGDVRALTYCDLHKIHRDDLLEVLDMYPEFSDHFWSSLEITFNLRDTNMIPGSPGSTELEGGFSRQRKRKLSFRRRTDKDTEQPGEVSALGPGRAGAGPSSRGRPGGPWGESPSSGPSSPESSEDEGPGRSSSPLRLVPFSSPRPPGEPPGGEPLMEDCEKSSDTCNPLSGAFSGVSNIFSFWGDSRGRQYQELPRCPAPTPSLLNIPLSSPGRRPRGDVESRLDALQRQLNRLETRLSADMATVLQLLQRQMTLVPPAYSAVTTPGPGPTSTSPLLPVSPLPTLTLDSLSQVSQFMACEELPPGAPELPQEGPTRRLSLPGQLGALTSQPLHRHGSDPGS

Row | Compound | Ratio IC50 [1] | pIC50 [2] | pIC50 [3] | pIC50 [4] | also measured
1 | NC(=O)c1cnc(NC2CCCCC2)c2c1[nH]c1ccc(-c3ccccc3)cc12 | > 50 | 6.74 | – | – | –
2 | Cn1cc(-c2ccc3c(c2)[nH]c2c(C(N)=O)cnc(N[C@H](C4CC4)C(F)(F)F)c23)cn1 | – | 9.40 | 7.39 | 6.64 | inhibition at 10 µM (CYP2C9): 66%; bioavailability [5]: 65%; inhibition at 10 µM (CYP3A4): 48%; clearance [6]: 14 mL/min/kg; half-life [7]: 4.1 h
3 | CC(C)[C@@H](Nc1ncc(C(N)=O)c2[nH]c3cc(-c4cnn(C)c4)ccc3c12)C(F)(F)F | > 50 | 8.52 | – | 6.25 | –
4 | CC(C)C(Nc1ncc(C(N)=O)c2[nH]c3cc(-c4cnn(C)c4)ccc3c12)C1CC1 (stereo not given) | > 50 | 8.52 | 7.02 | 6.68 | –
5 | NC(=O)c1cnc(N2CCCCC2)c2c1[nH]c1ccc(F)cc12 | > 50 | 6.72 | – | – | –
6 | CC(C)Cn1cc(-c2ccc3c(c2)[nH]c2c(C(N)=O)cnc(N[C@@H](C)C(C)(C)C)c23)cn1 | > 50 | 7.39 | – | – | –
7 | C[C@@H](Nc1ncc(C(N)=O)c2[nH]c3ccc(F)cc3c12)C(C)(C)C | > 50 | 6.68 | – | – | –
8 | NC(=O)c1cnc(NC(C2CC2)C2CC2)c2c1[nH]c1cc(-c3cnc(N)cn3)ccc12 | > 50 | 8.40 | 7.00 | 6.19 | inhibition at 10 µM (CYP2C9): 46%; pIC50 [8]: 6.14; inhibition at 10 µM (CYP3A4): 65%
9 | Cn1cc(-c2ccc3[nH]c4c(C(N)=O)cnc(NC5CCCCC5)c4c3c2)cn1 | > 50 | 7.89 | – | – | –
10 | NC(=O)c1cnc(N2CCCC2)c2c1[nH]c1ccc(F)cc12 | > 50 | 6.64 | – | – | –
11 | Cn1cc(-c2ccc3c(c2)[nH]c2c(C(N)=O)cnc(N[C@@H](C4CC4)C(F)(F)F)c23)cn1 | – | 8.05 | 6.28 | 5.72 | –
12 | NC(=O)c1cnc(NC2CCCCC2)c2c1[nH]c1ccccc12 | > 50 | 7.23 | – | – | –
13 | C[C@H](Nc1ncc(C(N)=O)c2[nH]c3cc(-c4ccc(Cl)nn4)ccc3c12)C(C)(C)C | > 50 | 7.85 | – | – | –
14 | NC(=O)c1cnc(NC2CCCCCC2)c2c1[nH]c1ccc(F)cc12 | > 50 | 7.72 | – | – | –
15 | NC(=O)c1cnc(NC2CCOCC2)c2c1[nH]c1ccc(F)cc12 | > 50 | 7.74 | – | – | –
16 | CC(C)Nc1ncc(C(N)=O)c2[nH]c3ccc(F)cc3c12 | > 50 | 7.00 | – | – | –
17 | C[C@H](Nc1ncc(C(N)=O)c2[nH]c3cc(-c4ccnc(N)n4)ccc3c12)C(C)(C)C | > 50 | 7.92 | – | – | –
18 | C[C@H](Nc1ncc(C(N)=O)c2[nH]c3cc(-c4ccc(N)nn4)ccc3c12)C(C)(C)C | > 50 | 8.00 | – | – | –
19 | CCCNc1ncc(C(N)=O)c2[nH]c3ccc(F)cc3c12 | > 50 | 7.17 | – | – | –
20 | C[C@H](Nc1ncc(C(N)=O)c2[nH]c3cc(-c4cnn(C)c4)ccc3c12)C1CC1 | > 50 | 9.00 | 7.85 | 6.85 | clearance [6]: 44 mL/min/kg; half-life [9]: 1.02 h; half-life [7]: 1 h
21 | NC(=O)c1cnc(NC2CCCC2)c2c1[nH]c1ccc(F)cc12 | > 50 | 7.29 | – | – | –
22 | NC(=O)c1cnc(NC2CCC2)c2c1[nH]c1ccc(F)cc12 | > 50 | 7.08 | – | – | –
23 | Cn1cc(-c2ccc3c(c2)[nH]c2c(C(N)=O)cnc(NC4CCCCC4)c23)cn1 | > 50 | 8.30 | – | – | pIC50 [8]: 6.21; inhibition at 10 µM (CYP3A4): 75%
24 | CC(C)CNc1ncc(C(N)=O)c2[nH]c3ccc(F)cc3c12 | > 50 | 7.13 | – | – | –

Row | Compound | Ratio IC50 [1] | pIC50 [2] | pIC50 [3] | pIC50 [4] | also measured
25 | NC(=O)c1cnc(N[C@H](C2CC2)C(F)(F)F)c2c1[nH]c1cc(-c3cnc(N4CCOCC4)nc3)ccc12 | > 50 | 8.10 | 6.28 | 6.37 | clearance [6]: 15 mL/min/kg
26 | NC(=O)c1cnc(NC2CCCCC2)c2c1[nH]c1cc(-c3cc[nH]n3)ccc12 | – | 7.64 | – | – | –
27 | NC(=O)c1cnc(NC2CCCCC2)c2c1[nH]c1cc(-c3ccn[nH]3)ccc12 | > 50 | – | – | – | –
28 | Cn1cc(-c2ccc3c(c2)[nH]c2c(C(N)=O)cnc(N[C@H](C4CCC4)C(F)(F)F)c23)cn1 | > 50 | 7.92 | 6.46 | 5.77 | –
29 | CNc1ncc(C(N)=O)c2[nH]c3ccc(F)cc3c12 | > 50 | 6.68 | – | – | –
30 | NC(=O)c1cnc(N[C@H](C2CC2)C(F)(F)F)c2c1[nH]c1cc(-c3ccc(N4CCS(=O)(=O)CC4)nn3)ccc12 | > 50 | 8.70 | 6.92 | 6.80 | clearance [6]: 54 mL/min/kg
31 | Cn1cc(-c2ccc3c(c2)[nH]c2c(C(N)=O)cnc(NC(C4CC4)C4CC4)c23)cn1 | > 50 | 8.70 | 6.89 | 6.55 | inhibition at 10 µM (CYP2C9): 80%; pIC50 [8]: 5.77; inhibition at 10 µM (CYP3A4): 62%; clearance [6]: 22 mL/min/kg; half-life [7]: 3.2 h
32 | NC(=O)c1cnc(NC2CCCCC2)c2c1[nH]c1ccc(F)cc12 | > 50 | 7.77 | – | – | –
33 | NC(=O)c1cnc(NC(C2CC2)C2CC2)c2c1[nH]c1cc(-c3cccnn3)ccc12 | > 50 | 8.70 | 7.55 | 6.57 | –
34 | CCC(Nc1ncc(C(N)=O)c2[nH]c3cc(-c4cnn(C)c4)ccc3c12)C1CC1 (stereo not given) | > 50 | 8.70 | 7.35 | 6.77 | –
35 | NC(=O)c1cnc(NC2CCCCC2)c2c1[nH]c1cc(-c3cn[nH]c3)ccc12 | > 50 | 7.89 | – | – | –
36 | CCN(c1ncc(C(N)=O)c2[nH]c3ccc(F)cc3c12)C1CCCCC1 | > 50 | 5.57 | – | – | –
37 | NC(=O)c1cnc(NC2CCCCC2)c2c1[nH]c1cc(-c3ccccc3)ccc12 | > 50 | 7.15 | – | – | –
38 | NC(=O)c1cnc(NC(C2CC2)C2CC2)c2c1[nH]c1cc(-c3cnc(N)nc3)ccc12 | > 50 | 9.00 | 7.54 | 6.66 | inhibition at 10 µM (CYP2C9): 35%; pIC50 [8]: 5.09; inhibition at 10 µM (CYP3A4): 55%; clearance [6]: 21 mL/min/kg
39 | NC(=O)c1cnc(NC2CCCCC2)c2c1[nH]c1cc(Cl)ccc12 | > 50 | 7.64 | – | – | –
40 | NC(=O)c1cnc(N[C@H](C2CC2)C(F)(F)F)c2c1[nH]c1cc(-c3cn[nH]c3)ccc12 | – | 9.00 | 7.49 | 6.66 | inhibition at 10 µM (CYP2C9): 61%; inhibition at 10 µM (CYP3A4): 68%; clearance [6]: 21 mL/min/kg
41 | NC(=O)c1cnc(NC2CCCCC2)c2c1[nH]c1cccc(Cl)c12 | > 50 | 6.96 | – | – | –
42 | C[C@H](Nc1ncc(C(N)=O)c2[nH]c3cc(-c4cnn(C)c4)ccc3c12)C(C)(C)C | > 50 | 8.30 | 6.43 | 6.46 | pIC50 [8]: 4.54; inhibition at 10 µM (CYP3A4): 49%; half-life [9]: 0.25 h
43 | NC(=O)c1cnc(NC(C2CC2)C2CC2)c2c1[nH]c1cc(-c3cn[nH]c3)ccc12 | – | 8.52 | 7.40 | 6.66 | inhibition at 10 µM (CYP2C9): 80%; inhibition at 10 µM (CYP3A4): 66%; clearance [6]: 31 mL/min/kg
44 | C[C@@H](Nc1ncc(C(N)=O)c2[nH]c3cc(-c4cnn(C)c4)ccc3c12)C1CC1 | > 50 | 7.96 | 7.10 | 6.13 | –
45 | C[C@H](Nc1ncc(C(N)=O)c2[nH]c3ccc(F)cc3c12)C(C)(C)C | > 50 | 7.28 | – | – | –
46 | CCCCNc1ncc(C(N)=O)c2[nH]c3ccc(F)cc3c12 | > 50 | 7.31 | – | – | –
47 | NC(=O)c1cnc(N[C@H](C2CC2)C(F)(F)F)c2c1[nH]c1cc(-c3ccc(N)nc3)ccc12 | > 50 | 8.70 | 7.21 | 6.43 | inhibition at 10 µM (CYP2C9): 41%; pIC50 [8]: 6.12; inhibition at 10 µM (CYP3A4): 65%; clearance [6]: 6 mL/min/kg
